The target in this assay is T1, STK4 (MST1) (Homo sapiens, UniProt Q13043).
T1 construct: purchased Thermo Fisher Scientific (Life Technologies) SelectScreen
As to the kind of experiment: SelectScreen Z'LYTE. In kind it is biochemical. The method in brief: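 Percent values come from Thermo SelectScreen profiling of NU5455, combining activity and binding assays. CSF1R was run in Z'LYTE format at Km app ATP, and CAMK1 in Adapta format with ATP listed at 10.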

Drawing on publication PMC6934184, “Selective DNA-PKcs inhibition extends the therapeutic index of localized radiotherapy and chemotherapy” (The Journal of Clinical Investigation, 2019), this text covers inhibition for 1 molecule.

T1 sequence (Q13043 whole entry): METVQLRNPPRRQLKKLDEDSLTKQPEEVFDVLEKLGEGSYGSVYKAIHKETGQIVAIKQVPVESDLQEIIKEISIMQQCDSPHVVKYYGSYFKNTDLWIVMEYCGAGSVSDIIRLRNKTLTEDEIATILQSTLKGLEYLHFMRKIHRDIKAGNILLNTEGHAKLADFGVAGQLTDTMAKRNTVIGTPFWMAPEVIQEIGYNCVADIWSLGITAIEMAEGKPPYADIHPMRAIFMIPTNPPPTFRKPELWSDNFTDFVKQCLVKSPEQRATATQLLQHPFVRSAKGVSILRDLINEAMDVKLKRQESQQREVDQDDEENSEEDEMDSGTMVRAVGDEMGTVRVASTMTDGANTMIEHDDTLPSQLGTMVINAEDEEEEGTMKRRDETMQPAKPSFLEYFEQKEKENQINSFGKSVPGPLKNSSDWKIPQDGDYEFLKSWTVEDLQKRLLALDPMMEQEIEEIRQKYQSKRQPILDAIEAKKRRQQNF

Consider `CN(C(=O)CN1CCOCC1)c1ccc2sc3c(-c4cccc5c(=O)cc(N6CC7CCC(C6)O7)oc45)cccc3c2c1` [NU5455], for which the inhibition at 1 µM was -4.4%.
